Experimental data reported in US8809535B2, “Substituted pyridines having herbicidal action” (BASF SE, priority 2010, dated 2014).

Columns and labels:
Assay in all cases: greenhouse post-emergence herbicidal test
ECHCG = format: in vivo, Echinochloa crus-galli; settings: application rate 0.177 kg/ha, scale 0 to 100
Text: (§1) The culture containers used were plastic flowerpots containing loamy sand with approximately 3.0% of humus as the substrate. The seeds of the test plants were sown separately for each species.
(§2) For the post-emergence treatment, the test plants were first grown to a height of 3 to 15 cm, depending on the plant habit, and only then treated with the active ingredients which had been suspended or emulsified in water. For this purpose, the test plants were either sown directly and grown in the same containers, or they were first grown separately as seedlings and transplanted into the test containers a few days prior to treatment.
(§3) Depending on the species, the plants were kept at 10-25° C. or 20-35° C. The test period extended over 2 to 4 weeks. During this time, the plants were tended, and their response to the individual treatments was evaluated.
(§4) Evaluation was carried out using a scale from 0 to 100. 100 means no emergence of the plants, or complete destruction of at least the aerial moieties, and 0 means no damage, or normal course of growth. A good herbicidal activity is given at values of at least 70 and a very good herbicidal activity is given at values of at least 85.
(§5) The plants used in the greenhouse experiments belonged to the following species: […]

SETVI = format: in vivo, Setaria viridis; settings: application rate 0.25 kg/ha, scale 0 to 100
Text: as §1, §2, §3, §4, §5

GALAP = format: in vivo, Galium aparine; settings: application rate 0.25 kg/ha, scale 0 to 100
Text: as §1, §2, §3, §4, §5

SMILES | herbicidal activity against ECHCG (ECHCG) | herbicidal activity against SETVI (SETVI) | herbicidal activity against GALAP (GALAP)
O=c1oc2cccnc2c(O)c1-c1cccc(N2CCOCC2)c1C(F)(F)F [Compound I-26] | very good herbicidal activity (a very good herbicidal activity is given at values of at least 85) | – | –
O=c1oc2cccnc2c(O)c1-c1cc(Cl)cc(N2CCOCC2)c1C(F)(F)F [Compound I-49, 3-[5-chloro-3-morpholino-2-(trifluoromethyl)phenyl]-4-hydroxy-pyrano[3,2-b]pyridin-2-one] | – | very good herbicidal activity (a very good herbicidal activity is given at values of at least 85) | very good herbicidal activity (a very good herbicidal activity is given at values of at least 85)
